According to US20100216693A1, “COMPOSITIONS AND METHODS OF TREATING DIABETES” (priority 2005, published 2010):
Read-outs that look alike come from different tables or passages of the source. Values belong to the compound of their own block, whether it stands above or below them.

Legend:
[1] = biological target: T1, insulin-insulin interaction (Homo sapiens, UniProt P01308); test: SPR: effect of substances mixed with insulin in solution on insulin-insulin interaction; format: binding; conditions: for effect of additive on insulin-insulin interaction: pH 5, insulin 10 μM, zinc sulfate in molar ratios higher than insulin, EDTA up to 10 μM
T1 construct: 28; purchased Novo Nordisk A/S, Denmark Actrapid
T1 sequence (P01308 25-54 limits assumed): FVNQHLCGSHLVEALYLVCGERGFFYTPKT
T1 sequence (P01308 90-110 limits assumed): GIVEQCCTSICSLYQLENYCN
Experimental: BiacorA Biacore 3000 instrument was employed for the interaction measurements based on surface plasmon resonance (SPR). Interaction analyses were performed at 25° C. in 10 mM Na-citrate buffers pH 3, 4, 5, 10 mM bis-Tris, pH 6, and 10 mM Tris/HC1, pH 7, all buffers containing 100 mM NaCl and 0.005% 5P20. Flow rates for the binding analyses were kept at 20 μl/min. […] Insulin was immobilized on a carboxymethyl-modified dextran surface via both amine and carboxyl coupling, using the surface thiol method, in two different lanes of Biacore CM5 chips. The immobilization was carried out according to the procedure described in the kits. In brief, the sensor chip surface was first washed with 4 M LiCl/HBS for 1 min and then with 0.2% SP20/HBS for 1 mM. The surface was activated according to standard procedure with an injection of 0.05 M NHS/0.2 M EDC for 7 min. Desalted insulin solution was diluted in acetate buffer, pH 4.5, to 20 μg/ml and injected at 50/min for different time intervals. For surface thiol coupling, the surface was first activated with 0.05 M NHS/0.2 M EDC for 2 min followed by a 3 min injection of 40 mM cystamine dihydrochloride and then 0.1 M DTE for 3 min. […] The mixture was incubated for 10 mM at room temperature and excess PDEA was removed on a NAP-10 column. The purified PDEA ligand was injected for 7 min, soon after DTE, and finally the surface was washed with 20 mM PDEA in 0.1 M sodium acetate, 1.0 M NaCl. For quick regeneration of the surface, 2 M guanidine-HC1, pH 6.4, was employed. For controls, lanes activated and deactivated according to the standard procedures were used. For subtraction of noise from the data, running buffer only was injected to all surfaces. For the C-terminal attachment, surface-thiol coupling to 4000-5000 RU was used, and for N-terminal attachment, amine coupling to 800-1000 RU as achieved on different CM5 chips. However for kinetic analysis immobilization was carried out in a controlled condition and around 1000 RU for C-terminal and 400 RU for N-terminal coupling were immobilized. A surface activated with EDC/NHS and deactivated with ethanolamine was used as a control surface for N-terminally immobilized insulin and a surface treated with EDC/NHS, cysteine/DTE and finally deactivated with PDEA-NaCl was used as a control for C-terminally immobilized insulin. Biacore data were analyzed with Bia-evaluation software 4.1. All calculations based on numerical approaches, including simulations and global curve fitting for estimates of active concentrations, were performed with IGOR Pro (version 4.01.A, WaveMetrics, Inc.). However, C-peptide, mixed with insulin in solution, influences the insulin-insulin monomer interactions measured above. […] This elevated interaction can be seen at different pH from 3-7. The phenomenon of more pronounced interaction was clearer when concentrations higher than 0.5 μM were used then below 0.5 μM. […] All concentrations were run in triplicates and in random order.

insulin = biological target: T2, insulin (Homo sapiens, UniProt P01308); test: Non-denaturing nano-electrospray mass spectrometry of insulin, C-peptide and control peptides; format: binding; conditions: ESI-MS
T2 construct: 28; purchased Novo Nordisk A/S, Denmark Actrapid
T2 sequence (P01308 25-54 limits assumed): as the sequence (P01308 25-54 limits assumed) above
Experimental: For mass spectrometric analysis, preparation of concentrated insulin stock solution was performed essentially as described [Nettleton et al, 2000, Biophys J. 79:1053]. Briefly, insulin (NovoNordisk A/S, Denmark) was concentrated to 100 μM using ultrafiltration spin-filters (NanoSep, PallGellman, MWCO: 3000 Da). This stock solution was then buffer-exchanged to water, pH 5 (HCl), by extended dialysis. For all experiments, insulin and C-peptide stock solutions were diluted in water-HC1 (pH 5) to reach the indicated concentrations. C-peptide was prepared as a 746 μM stock solution in water and all control peptides were prepared similarly.
Mass spectrometry data were recorded with a QTOF Ultima API instrument (Waters, Milford, Mass.) operated in the positive ion mode. Sample solutions were analyzed by nanoelectrospray from conductive borosilicate glass capillaries (Proxeon Biosystems A/S, Odense, Denmark). Instrument settings were not modified for the observation of non-covalent complexes, other than that the “cone” and the “RF-lens” settings were set to 90 and 50 V, respectively.
The binding between insulin and C-peptide in the gas-phase was studied by non-denaturing electrospray mass spectrometry using a method analogous to that of Nettleton et al [Nettleton et al, 2000, Biophys J. 79:1053].

immobilized insulin = biological target: T3, immobilized insulin (Homo sapiens, UniProt P01308); test: SPR (Biacore 3000) insulin-insulin interaction, free insulin over chip-immobilized insulin; format: binding; conditions: for Kd: C-terminally immobilized insulin, global fit, analyte with two binding sites competing for one site, insulin 0.25-10 μM
T3 construct: 28; purchased Novo Nordisk A/S, Denmark Actrapid
T3 sequence (P01308 25-54 limits assumed): as above
Experimental: BiacorA Biacore 3000 instrument was employed for the interaction measurements based on surface plasmon resonance (SPR). Interaction analyses were performed at 25° C. in 10 mM Na-citrate buffers pH 3, 4, 5, 10 mM bis-Tris, pH 6, and 10 mM Tris/HC1, pH 7, all buffers containing 100 mM NaCl and 0.005% 5P20. Flow rates for the binding analyses were kept at 20 μl/min. Insulin was desalted and buffer was exchanged on NAP 10 columns from Amersham Biosciences.
Working insulin solution was prepared after removing the excess of zinc sulfate, meta-cresol and other salts from the original solution by passing through a NAP 10 column in the desired buffer for experiments. The desalted insulin was diluted to 1 mM, aliquoted and stored at −20° C.
Insulin was immobilized on a carboxymethyl-modified dextran surface via both amine and carboxyl coupling, using the surface thiol method, in two different lanes of Biacore CM5 chips. The immobilization was carried out according to the procedure described in the kits. In brief, the sensor chip surface was first washed with 4 M LiCl/HBS for 1 min and then with 0.2% SP20/HBS for 1 mM. The surface was activated according to standard procedure with an injection of 0.05 M NHS/0.2 M EDC for 7 min. Desalted insulin solution was diluted in acetate buffer, pH 4.5, to 20 μg/ml and injected at 50/min for different time intervals. For surface thiol coupling, the surface was first activated with 0.05 M NHS/0.2 M EDC for 2 min followed by a 3 min injection of 40 mM cystamine dihydrochloride and then 0.1 M DTE for 3 min. At the same time, 2-(2-pyridinyldithio)ethaneamine hydrochloride (PDEA) insulin was prepared by dissolving 0.5 mg insulin in 0.5 ml 0.1 M MES, adding to it 0.25 ml of (15 mg/ml) PDEA in 0.1 M MES, pH 5, and 25 μl 0.4M EDC. The mixture was incubated for 10 mM at room temperature and excess PDEA was removed on a NAP-10 column. The purified PDEA ligand was injected for 7 min, soon after DTE, and finally the surface was washed with 20 mM PDEA in 0.1 M sodium acetate, 1.0 M NaCl. For quick regeneration of the surface, 2 M guanidine-HC1, pH 6.4, was employed. For controls, lanes activated and deactivated according to the standard procedures were used. For subtraction of noise from the data, running buffer only was injected to all surfaces.
For the C-terminal attachment, surface-thiol coupling to 4000-5000 RU was used, and for N-terminal attachment, amine coupling to 800-1000 RU as achieved on different CM5 chips. However for kinetic analysis immobilization was carried out in a controlled condition and around 1000 RU for C-terminal and 400 RU for N-terminal coupling were immobilized. […]
Biacore data were analyzed with Bia-evaluation software 4.1. […]

[2] = s.c. injection of C-peptide plus soluble insulin (CI-day) vs insulin plus diluent (I-day), glucose clamp, Type 1 diabetic patients; format: in vivo, human
Experimental: Apart from insulin they had no other medication. All patients received injections of soluble insulin before meals and intermediate-acting insulin at bedtime. Six patients had simplex retinopathy and two of these (nos. 4 and 8) also had microalbuminuaria. All subjects were informed of the purpose, nature and possible risks before giving their consent to participate in the study, which was approved by the local Ethics Committee. The experiments were carried out on two days separated by at least one week. The patients were admitted to the hospital at 8 p.m. in the evening before the study day. They received their last dose of insulin at 4-6 p.m. In order to clear the subcutaneous depots of insulin no intermediate-acting insulin was given at bedtime. Instead, an intravenous infusion of insulin was started at the time of admission. […] On the study day the investigation started at 7.30 a.m. after an overnight fast. A short teflon catheter was inserted into an antecubital vein for blood sampling. […] The injections were given with an automatic injection device (which allowed standardization of speed and depth) approximately 100 mm lateral to the umbilicus into the middle of the subcutaneous tissue, the depth of which was predetermined with ultrasound. After the injections plasma glucose was allowed to decrease to 3.5 mmol/l, whereafter it was maintained at 3.5-5 mmol/l using a variable glucose infusion (DeFronzo R, Tobin J, Andres R, American Journal of Physiology 237:[…]-[…], 1979) The patients were followed for 6 hours. Blood samples for the determination of plasma glucose, free insulin, C-peptide, FFA and glucagon were taken at timed intervals. […] Plasma free insulin was determined by radioimmunoassay after immediate polyethylene glycol precipitation (Arnquist H, Olsson P, von Schenk H, Clinical Chemistry 33:93-96, 1987). C-peptide (Heding L, Diabetologia 11:541-548, 1975) and glucagon were also analyzed by radioimmunoassay using a commercially available kit (MILAB, Malmö, Sweden). Plasma […], Greenberg […], Goetz F, Metabolism 35:122-125, 1986) was determined by a fluorometric method. Standard statistical methods including Wilcoxon's nonparametric test, Student's paired t-test and linear regression analyses were performed when applicable. Results are presented as mean values±SEM. […] The areas under the plasma insulin, and free fatty acid concentration curves were computed by trapezoidal integration.

[3] = in vivo; cited from earlier work

effect of additive on insulin-insulin interaction [1]: promoted insulin-insulin interaction
Compound: O=C(O)CN(CCN(CC(=O)O)CC(=O)O)CC(=O)O [EDTA]

Compound: O=S(=O)([O-])[O-].[Zn+2] [zinc sulfate]
effect of additive on insulin-insulin interaction [1]: diminished insulin interaction

stimulation of SPR-measurable binding in mixture with insulin in the flow-through solution ([1]; Example 10): stimulated SPR-measurable binding
Compound: C-terminal pentapeptide: pentapeptide EGSLQ (SEQ ID NO. 2), residues 27-31 of native human C-peptide (Pentapeptide of C-peptide)
enhancement of insulin-insulin binding relative to native C-peptide ([1]; 1:1 molar ratio (FIG. 15)): as equally effective as the native C-peptide

insulin concentration at which dimerization is detectable (insulin): 3 µM | insulin concentration at which higher polymers up to hexamers are detectable (insulin): 30 µM | Kd (immobilized insulin; read-out: dissociation constant KD1 (slow off rate)): 2.71 µM | Kd (immobilized insulin; read-out: dissociation constant KD2 (rapid off rate)): 4.65 µM | lowest insulin solution concentration at which binding is noticeable (immobilized insulin; pH 5): 0.05 µM | pH of highest (maximum) insulin-insulin binding interaction (immobilized insulin; pH range 3-7): 5
Compound: Human insulin

Compound: I: soluble insulin (Humulin; 10U) and C-peptide diluent, injected s.c.
AUC for plasma FFA concentration 0-360 min ([2]; 0-360 min): 129 ± 17 mmol·min/L | plasma FFA 10 min after the injections ([2]; 30 min after cessation of i.v. insulin infusion): 0.80 ± 0.11 mmol/L | AUC for plasma FFA concentration 0-180 min ([2]; after correction for the plasma free insulin area, p<0.01): 55.6 ± 5.1 mmol·min/L | area under the plasma IRI curve (0-360 min) ([2]; human, in vivo): 5847±430 mU/l×min | plasma glucose at the beginning of the glucose infusions ([2]; human, in vivo): 3.5 ± 0.05 mmol/L | plasma C-peptide at 360 min ([2]; mean±SEM): 0.10 ± 0.02 nmol/L | patients requiring intravenous infusion of glucose to avoid hypoglycemia ([2]; nine patients): 7 of 9 | time of peak plasma insulin (IRI) ([2]; s.c. insulin 10 U): 88 ± 11 min | duration of glucose infusion ([2]; variable glucose infusion to avoid hypoglycemia): 124 ± 28 min

Compound: Insulin Glulisine
action / pharmacokinetic profile compared with other rapid acting analogues [3]: pharmacokinetic profile similar to Lispro and Aspart

Compound: Lispro
effective duration [3]: 4 to 6 h | onset of action [3]: 5 to 15 min | peak action [3]: 0.5 to 1.5 h

Compound: regular insulin: regular human insulin
effective duration [3]: 8 to 10 h | onset of action [3]: 30 to 60 min | peak action [3]: 2 to 3 h

Compound: zinc insulin (Lente): human insulin preparation, zinc insulin, with extended duration
effective duration [3]: 12 to 20 h | onset of action [3]: 120 to 240 min | peak action [3]: 4 to 10 h
